In PubChem BioAssay (NCI) one finds GI50 and TGI data, which are given here for 14 compounds.

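How tested: cells in 96-well plates exposed to compound for 48 hours at five concentrations. Abbreviation: GI50, concentration required for 50% inhibition of growth. At the TGI there is no net growth.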

Among the test systems are RPMI-8226 leukemia; OVCAR-8 ovarian; U251 CNS; SK-MEL-2 melanoma; NCI/ADR-RES ovarian; DU-145 prostate; SNB-19 CNS; NCI-H460 lung; HOP-92 NSCLC; HCC-2998 colon.
Holding throughout (assay): growth of human tumour cells (NCI), 48 h

With `NCCSC(c1ccccc1)(c1ccccc1)c1ccccc1`, the GI50 in the assay with RPMI-8226 leukemia was 1.11 µM; in the assay with OVCAR-8 ovarian, 0.989 µM; with U251 CNS, 0.373 µM; with SK-MEL-2 melanoma it was 1.18 µM; in the assay on NCI/ADR-RES ovarian, 1.86 µM; in the assay with DU-145 prostate, 2.32 µM. In addition, the GI50 was 5.36 µM in the assay on SNB-19 CNS and 1.31 µM with NCI-H460 lung. Further, the TGI was determined as 4.19 µM with RPMI-8226 leukemia; 7 µM with OVCAR-8 ovarian; 1.72 µM in the assay with U251 CNS; 2.72 µM with SK-MEL-2 melanoma; 5.71 µM in the assay on NCI/ADR-RES ovarian; 6.07 µM with DU-145 prostate. Further, the TGI amounted to 20.1 µM with SNB-19 CNS and 4.01 µM with NCI-H460 lung.
On to `COc1cc2nc3cc([N+](=O)[O-])ccc3c(NCCNCC(C)O)c2cc1OC` (stereo not drawn), for which the GI50 in the assay with HOP-92 NSCLC was 0.367 µM; in the assay with RPMI-8226 leukemia it was 1.55 µM; with OVCAR-8 ovarian it was 0.587 µM; in the assay on U251 CNS it was 0.442 µM; in the assay with SK-MEL-2 melanoma it was 0.63 µM; with NCI/ADR-RES ovarian, 7.42 µM. In addition, the GI50 with DU-145 prostate is 0.445 µM; in the assay with SNB-19 CNS, 0.436 µM; with NCI-H460 lung, 0.366 µM. The TGI worked out at 2.31 µM in the assay on HOP-92 NSCLC; 5.52 µM with RPMI-8226 leukemia; 3.13 µM in the assay on OVCAR-8 ovarian; 2.26 µM in the assay with U251 CNS; 2.18 µM in the assay with SK-MEL-2 melanoma; 23.6 µM in the assay with NCI/ADR-RES ovarian. Further, the values for the TGI in the assay on DU-145 prostate, in the assay with SNB-19 CNS and in the assay on NCI-H460 lung were 2.2 µM, 2.74 µM and 1.6 µM, respectively.
As for `CC(C)=NNC(=S)NC12CC3CC(CC(C3)C1)C2`, the TGI in the assay with HOP-92 NSCLC, in the assay with RPMI-8226 leukemia, with OVCAR-8 ovarian, in the assay on U251 CNS, with SK-MEL-2 melanoma and with SNB-19 CNS was more than 100 µM in each case. The TGI with NCI-H460 lung is more than 100 µM.
With `O=[N+]([O-])C=C1c2ccccc2-c2ccccc21`, the TGI came out at 5.5 µM in the assay on RPMI-8226 leukemia; 34.2 µM in the assay on OVCAR-8 ovarian; 39.9 µM with SK-MEL-2 melanoma; 30.6 µM with HCC-2998 colon; 51.8 µM in the assay with SNB-19 CNS; 38.9 µM in the assay on NCI-H460 lung.
For `O=C1C(=O)N(c2ccc(Cl)cc2)C(=O)C(=Nc2cccc3c(=O)[nH][nH]c(=O)c23)C1c1nc2ccccc2o1` (stereo not drawn), the TGI with HOP-92 NSCLC, in the assay on RPMI-8226 leukemia, with OVCAR-8 ovarian, in the assay with U251 CNS, with SK-MEL-2 melanoma and with HCC-2998 colon was more than 100 µM throughout. The TGI with SNB-19 CNS and in the assay on NCI-H460 lung was more than 100 µM in each case.
Consider `Cc1ccc(C2=Nc3ccccc3S(=O)C(c3ccc4c(c3)OCO4)C2)cc1` (stereo not drawn), for which the TGI in the assay on OVCAR-8 ovarian is 46.9 µM; with U251 CNS, 31.1 µM; with SK-MEL-2 melanoma, 41.6 µM; in the assay with HCC-2998 colon it was more than 10 µM; in the assay on SNB-19 CNS it was more than 100 µM; in the assay with NCI-H460 lung, more than 10 µM.
As to `O=C(O)c1c2c(cc3c(=O)cc(-c4ccccc4)oc13)CCCC2`, the TGI with HOP-92 NSCLC, in the assay with RPMI-8226 leukemia, in the assay on OVCAR-8 ovarian, in the assay with U251 CNS, with SK-MEL-2 melanoma and in the assay with HCC-2998 colon was more than 100 µM throughout. Moreover, the TGI in the assay on SNB-19 CNS and in the assay on NCI-H460 lung was more than 100 µM in each case.
With `COC(=O)C1[C@H](c2ccc3c(c2)OCO3)OC(=O)[C@]1(C(=O)OC)C(=O)c1ccc(OC)c(OC)c1` (stereo partly drawn), the TGI in the assay on HOP-92 NSCLC is more than 100 µM; in the assay with RPMI-8226 leukemia it was more than 100 µM; in the assay with OVCAR-8 ovarian it was more than 100 µM; in the assay on U251 CNS, more than 100 µM; in the assay on SK-MEL-2 melanoma it was 79.9 µM; in the assay on HCC-2998 colon, more than 100 µM. The compound further returned a TGI in the assay on NCI-H460 lung of more than 100 µM.
`c1ccc2c(CNCCCCCCCCNCc3cccc4ccccc34)cccc2c1`: the TGI in the assay with HOP-92 NSCLC came out at 9.92 µM; in the assay on RPMI-8226 leukemia, 3.87 µM; in the assay on OVCAR-8 ovarian it was 3.5 µM; in the assay with U251 CNS it was 3.13 µM; in the assay with SK-MEL-2 melanoma, 3.03 µM; with NCI-H460 lung it was 2.8 µM.
As for `NC(N)=N/N=C/c1c(-c2cccnc2)nc2sc(Cl)cn12`, the GI50 was 18 µM with RPMI-8226 leukemia; 16.5 µM in the assay with OVCAR-8 ovarian; 13.3 µM with U251 CNS; 42.8 µM in the assay with SK-MEL-2 melanoma; 52.2 µM with NCI/ADR-RES ovarian; 14.4 µM in the assay with HCC-2998 colon. The GI50 in the assay with NCI-H460 lung was 61.2 µM. Also, the TGI is 42 µM in the assay with RPMI-8226 leukemia; 38.7 µM in the assay with OVCAR-8 ovarian; 26.1 µM in the assay with U251 CNS; more than 100 µM with SK-MEL-2 melanoma; more than 100 µM with NCI/ADR-RES ovarian; 27.5 µM in the assay with HCC-2998 colon. The TGI in the assay with NCI-H460 lung is more than 100 µM.
With `Cc1ccc(C(=O)NCCN(C)C)c2nc3ccccc3cc12`, the TGI is more than 100 µM in the assay on HOP-92 NSCLC; more than 100 µM with RPMI-8226 leukemia; 7.99 µM in the assay with OVCAR-8 ovarian; 4.09 µM in the assay on U251 CNS; more than 100 µM in the assay on SK-MEL-2 melanoma; 13.4 µM in the assay with HCC-2998 colon. Also, the TGI in the assay with SNB-19 CNS was determined as 13.6 µM; in the assay on NCI-H460 lung, 14.7 µM.
Regarding `COc1ccc2nc3cccc([N+](=O)[O-])c3c(NC(C)CN(C)C)c2c1` (stereo not drawn), the GI50 with HOP-92 NSCLC is 2.38 µM; with RPMI-8226 leukemia, 1.78 µM; in the assay with OVCAR-8 ovarian, 1.54 µM; in the assay with U251 CNS it was 0.371 µM; in the assay with NCI/ADR-RES ovarian, 2.92 µM; with DU-145 prostate, 1.89 µM. Moreover, the GI50 with SNB-19 CNS is 2.63 µM; in the assay on NCI-H460 lung it was 0.51 µM. The TGI came out at 5.68 µM with HOP-92 NSCLC; 6 µM with RPMI-8226 leukemia; 7.64 µM in the assay with OVCAR-8 ovarian; 2.17 µM in the assay with U251 CNS; 13 µM with NCI/ADR-RES ovarian; 14.2 µM with DU-145 prostate. The TGI with SNB-19 CNS stood at 7.91 µM; with NCI-H460 lung it was 3.73 µM.
Take `CN(/N=C\c1ccnc2ccccc12)c1ccccc1`: the TGI with HOP-92 NSCLC is 50 µM; in the assay with RPMI-8226 leukemia, more than 100 µM; in the assay with OVCAR-8 ovarian, more than 100 µM; with U251 CNS, 84.9 µM; in the assay with SK-MEL-2 melanoma, 38.5 µM; in the assay with SNB-19 CNS, more than 100 µM. In addition, the TGI in the assay with NCI-H460 lung was found to be 55.5 µM.
As for `COC12OCCN(C)C1=CC(=O)C1(C)N=NCC12` (stereo not drawn), the TGI in the assay with HOP-92 NSCLC, in the assay on RPMI-8226 leukemia, in the assay on OVCAR-8 ovarian, in the assay with U251 CNS, with HCC-2998 colon and in the assay with NCI-H460 lung was more than 100 µM in each case.
